Laboratory results reported in patent US9925176B2, “Sodium channel blocker delivery system with scleral lens” (Boston Foundation for Sight, priority 2009, dated 2018).

Key:
cornea = conditions: proparacaine 0.05%, after photorefractive keratectomy, Shahinian et al.; cited from earlier work
corneas = assay: Ocular safety examination (fluorescein staining, slit lamp, confocal microscopy); format: in vivo, human
Description: (§1) They wore the BOS-P containing 0.001% bupivacaine in their left eye, and the BOS-P containing saline in their right eye unmasked to the patient and doctor, for about 8 hours. […] Corneal sensation in the treated eye was normal.
The patient returned the following day 2 hours after inserting the scleral lenses containing 0.015% ropivacaine.
A patient suffered from severe corneal neuropathic pain for many years, greatly limiting the patient's quality of life. This disease was refractory to previous treatments. Lacosamide was placed in the fluid reservoir of the device where it remained in contact with the cornea while it was worn (approximately 10 hours/day).

corneal neuropathic pain [1] = assay: Treatment of corneal pain with drug solution in the fluid reservoir of a scleral lens (BOS-P); format: in vivo, human
Description: (§2) A patient with well-established primary Sjögren's syndrome and severe dry eyes was treated for intense, constant corneal pain using the anesthetic delivery system disclosed herein. Specifically, the patient was treated with bupivacaine and BOS-P devices. The concentration of non-preserved bupivacaine was rapidly titrated using frequent (every 2-5 minutes) drops in the more symptomatic left eye (open label) measuring corneal sensitivity with a Cochet-Bonnet aesthesiometer (with adequate recovery times) until reaching the concentration that avoided any depression of corneal sensitivity. The sub-anesthetic concentration in this patient was determined to be 0.001%. Both BOS-P devices were filled with 0.001% bupivacaine and inserted into the patient's eyes. The patient then left.
The patient was given a vial of 0.01% bupivacaine to dilute 1:10 (e.g., add one drop of 0.01% bupivacaine to nine drops of saline) to fill the reservoir of the left lens prior to inserting it the next morning.
as §1
The fluid compartments of both BOS-P lenses were filled with non-preserved bupivacaine at a concentration of 0.002%, and the BOS-P lenses with bupivacaine were worn at least 12 hours/day. […] Eye symptoms were also resolved after the bupivacaine was diluted to 0.0014%.
A patient suffered from Stevens-Johnson syndrome for about 25 years, complicated by scarring of the lids and corneas of both eyes. The patient was fitted with scleral lens with marked mitigation of eye pain for 2 years following which the patient experienced increasingly disabling eye pain and photosensitivity that was refractory to all available treatments and required high daily doses of opioids to control. Three drops of ropivacaine 0.04% were mixed with 5 drops of saline in the reservoirs of both of the patient's scleral lenses, yielding a solution of 0.015% ropivacaine.
The patient returned the following day 2 hours after inserting the scleral lenses containing 0.015% ropivacaine. […]
A patient underwent a bone marrow stem cell transplant for leukemia and subsequently developed severe dry eyes secondary to chronic graft versus host disease. They were fitted with a scleral lens that eliminated the severe burning pain in their right eye but continued to experienced knife-like and severe aching pain in their left eye and disabling photosensitivity while wearing the scleral lens. This persisted for 15 months. All eye and co-morbid pain symptoms disappeared when the lens was worn with its fluid reservoir filled with sterile, non-preserved lacosamide 0.05%.

corneal sensitivity = assay: Corneal sensitivity by Cochet-Bonnet aesthesiometry; format: in vivo, human
Source text: The sub-hypoesthetic dose for a sodium channel blocker or a sodium channel modulator may vary between patients. […] The sub-hypoesthetic dose of a sodium channel blocker or a sodium channel modulator can be determined for an individual patient by selecting a higher starting concentration and gradually reducing the concentration via titration until reaching a sub-hypoesthetic dose as determined by a contact and non-contact esthesiometer. A non-limiting example of a method of determining corneal sensitivity is Cochet-Bonnet aesthesiometry.
As used herein, the phrases “sub-anesthetic dose” and “sub-anesthetic concentration” refer to a dose of a sodium channel blocker or a sodium channel modulator or a sodium channel modulator that is lower than the anesthetic dose. “Sub-anesthetic dose” and “sub-anesthetic concentration” may be used interchangeably. The sub-anesthetic dose of a sodium channel blocker or a sodium channel modulator may vary between patients. The sub-anesthetic dose of a sodium channel blocker or a sodium channel modulator can be determined for an individual patient by selecting a higher starting concentration and gradually reducing the concentration via titration until reaching a sub-anesthetic dose as determined by a contact and non-contact esthesiometer. A non-limiting example of a starting concentration of a sodium channel blocker or a sodium channel modulator is about 0.02%. In some embodiments, the concentration of the sodium channel blocker or a sodium channel modulator may be titrated down to a concentration that avoids any depression of corneal sensitivity. A non-limiting example of a method of determining corneal sensitivity is Cochet-Bonnet aesthesiometry.
as §2, with “Both BOS-P devices were filled with 0.001% bupivacaine and inserted into the patient's eyes.” left out

corneal neuropathic pain [2] = assay: Lacosamide eye drops without scleral lens for corneal neuropathic pain; format: in vivo, human; conditions: Example 5, eye drops with 0.5% lacosamide
Description: Eye drops containing 0.5% lacosamide were administered to the eyes of two patients and to the an eye of the inventor. […] Therefore, it is believed that lacosamide may be used in eye drops at a concentration of up to 5% to treat corneal neuropathic pain without depressing corneal sensation.

[3] = Example 3, ropivacaine in scleral lenses, continued use

For CCCOc1ccc(C(=O)OCCN(CC)CC)cc1N [Proparacaine], the anesthetic effect (cornea) is given as “non-anesthetic” and the toxicity and safety (cornea) is given as “non-toxic, and safe for at least one week of use”.

In the case of CCCCN1CCCCC1C(=O)Nc1c(C)cccc1C (stereo not shown) [bupivacaine], the fluorescein staining (corneas; in vivo) is reported as “no significant fluorescein staining”, the “eye comfort reported by patient” value (corneal neuropathic pain [1]; Example 1, both BOS-P filled with 0.001% bupivacaine, next day) is reported as “both eyes felt more comfortable than they had been in 3 months” and the “pain reported at day's end” value (corneal neuropathic pain [1]; Example 1, second day, left lens reservoir filled with non-preserved bupivacaine) is reported as “virtual absence of pain in either eye”. The “pain after exposure to glass cleaner or white board marker” value (corneal neuropathic pain [1]; Example 1, second day, triggers that ordinarily cause severe pain) was “little or no pain”, the “pain reported after about 8 hours of wear” value (corneal neuropathic pain [1]; Example 1, third day, BOS-P with 0.001% bupivacaine in left eye, saline in right eye) was “virtually no pain in either eye” and the “pain with the Visual Analog Scale” value (corneal neuropathic pain [1]; Example 1, third day, on arrival) was “virtually no pain in either eye”. For the same molecule, the eye symptoms (corneal neuropathic pain [1]; Example 2, bupivacaine diluted to 0.0014%) was “resolved”, the “eye symptoms (photosensitivity, burning pain, inability to read)” value (corneal neuropathic pain [1]; Example 2, post cosmetic lid surgery, 0.002% bupivacaine in both BOS-P, at least 12 hours/day, several weeks) was “resolved” and the “corneal sensitivity during wear” value (corneal sensitivity; Example 1, 0.001% bupivacaine in left lens, verified periodically during the day) was “absence of depressed corneal sensitivity”. For the same molecule, the “corneal sensation in the treated eye” value (corneal sensitivity; Example 1, after about 8 hours of BOS-P with 0.001% bupivacaine) was “normal” and the corneal sensation (corneal sensitivity; Example 2, 0.002% bupivacaine in BOS-P, several weeks) was “remained intact”.

With COC[C@@H](NC(C)=O)C(=O)NCc1ccccc1 [lacosamide] the “detrimental effects to the corneas” value (corneas; Example 4, 0.003% lacosamide in BOS-P, slit lamp examination and confocal microscopy) was “without any detrimental effects”, the “eye and co-morbid pain symptoms” value (corneal neuropathic pain [1]; Example 6, chronic graft versus host disease dry eye, scleral lens reservoir filled with lacosamide 0.05%) was “disappeared” and the corneal sensation (corneal sensitivity; Example 5, eye drops with 0.5% lacosamide, two patients and the inventor) was “did not depress corneal sensation”. The “duration of effect, one patient” value (corneal neuropathic pain [2]) was “over four”, the “duration of effect, other patient” value (corneal neuropathic pain [2]) was “over two” and the “onset of pain resolution” value (corneal neuropathic pain [2]) was “almost immediately after administration”. The corneal neuropathic pain (corneal neuropathic pain [2]; both patients) was “complete resolution”.

For CCCN1CCCC[C@H]1C(=O)Nc1c(C)cccc1C [ropivacaine], the “adverse effects from the treatment” value (corneas; in vivo) was “no adverse effects”, the “treatment-related complications at subsequent examinations” value (corneas; in vivo) was “without adverse treatment-related complications” and the “eye pain and photophobia, lenses worn until midnight” value (corneal neuropathic pain [1]; Example 3, 0.015% ropivacaine, first day) was “total resolution”. For the same molecule, the “eye pain and photosensitivity following application” value (corneal neuropathic pain [1]; Example 3, Stevens-Johnson syndrome, 0.015% ropivacaine in both scleral lenses) was “rapid mitigation”, the “symptoms at the time of examination” value (corneal neuropathic pain [1]; Example 3, following day, 2 hours after inserting lenses with 0.015% ropivacaine) was “free of symptoms” and the “eye pain and photophobia at subsequent examinations” value (corneal neuropathic pain [1]; [3]) was “significant mitigation”. For the same molecule, the corneal sensitivity (corneal sensitivity; Example 3, 0.015% ropivacaine, following day) was “normal” and the “corneal sensitivities at subsequent examinations” value (corneal sensitivity; [3]) was “normal”.
